Laboratory results from PMC11701329, “Inhibition of the polyol pathway by Ducrosia anethifolia extract: plausible implications for diabetic retinopathy treatment” (Frontiers in Pharmacology, 2024).
In brackets after ≈: the same amount, converted by molar mass.

Assays:
[1] = biological target: T1, SD (sorbitol dehydrogenase); test: absorbance change at […] nm (NAD+ reduction); format: biochemical; conditions: 0.5 mM NAD+, 100 mM sorbitol, 100 mM Tris-HCl pH 9.0
T1 construct: gene SORD; purchased from Sigma-Aldrich; human recombinant cannot be excluded

[2] = test system: T1, SD (sorbitol dehydrogenase); test: absorbance change at […] nm, Lineweaver-Burk; format: biochemical; conditions: no extract; 0.5 mM NAD+, sorbitol 50-250 mM, 100 mM Tris-HCl pH 9.0
[3] = test system: O=CC(O)CO; test: purified protein; conditions: no extract, 0.15 mM NADPH, DL-glyceraldehyde 5-25 mM, 100 mM sodium phosphate pH 6.2

O=c1c(O)c(-c2ccc(O)c(O)c2)oc2cc(O)cc(O)c12 [quercetin]
IC50 [1]: 8.14 ± 2.27 µg/mL (≈ 26.9 µM)

OC[C@@H](O)[C@@H](O)[C@H](O)[C@@H](O)CO [sorbitol]
Km [2]: 44.7 mM

human recombinant AR (aldose reductase) (Homo sapiens)
Km [3]: 5.51 mM | Vmax [3]: 0.069 µM/min
